Experimental data taken from patent US12491185B2, “Inhibitors of mPTP” (NRG Therapeutics Ltd, priority 2023, dated 2025).

How the values were obtained:
mPTP [1] = assay: mPTP activity assay in isolated rat brain mitochondria; format: biochemical; settings: fluorescence at 10 min timepoint
Method: MPTP activity was measured in brain mitochondria freshly isolated from female Sprague Dawley (250 to 300 gram) rats. Anaesthetised rats were perfused in-situ with −40 ml cold Dulbecco's Phosphate Buffered Saline (DPBS), then brains dissected and transferred into 30 ml Isolation Buffer (225 mM mannitol, 75 mM sucrose, 1 mM EGTA, adjusted to pH 7.4 with 1M NaOH). The brain was minced using tweezers and a scalpel into −5 mm pieces then transferred into a 50 ml Potterton Dounce homogenization tube on ice containing 10 ml ice-cold isolation buffer (as above with addition of Complete Protease inhibitor; 1 tablet per 50 ml buffer). Homogenisation was carried out using a teflon pestle at 1800 rpm. The slurry was centrifuged at 2000 g for 10 min at 4° C., then the supernatant centrifuged at 12,000 g for 9 min. The pellet was resuspended with a dounce homogeniser in isolation buffer as above but with the addition of 0.02% digitonin, centrifuged at 12,000 g for 11 min and finally resuspended in 5 ml modified isolation buffer (as above but with EGTA reduced to 0.1 mM).
Test compounds were prepared in 384 well polypropylene assay plates as described above for the liver mitochondria assay. A stock mitochondria/Fluo5N assay solution was prepared in 5.6 ml assay buffer (120 mM mannitol, 40 mM MOPS, 5 mM KH2PO4, 60 mM KCl, 10 mM pyruvate, 2 mM malate, 2 mM MgCl2, 20 μM ADP, 1.26 μM oligomycin A, adjusted to pH 7.4) supplemented with Fluo5N pentapotassium salt (2 μM) and 1 ml mitochondria suspension, then transferred (15 μl) into the assay plate containing test compounds and incubated for 10 min at RT. Assay plates were then transferred to a FLIPR Tetra plate reader (Molecular Devices). Dye fluorescence was then measured every 3 sec for a total of 10 min.

mPTP [2] = assay: mPTP activity (Ca2+ retention) assay in isolated rat liver mitochondria; format: biochemical; settings: examples tested by different contract research organisations, believed comparable
Outline: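 pIC50 was taken from Fluo5N fluorescence at 10 min after a 75 μM CaCl2 bolus, scaled between DMSO (0%) and 5 μM cyclosporin A (100%). Compounds, ten half-log concentrations from 30 μM to 1 nM final, sat 10 min at RT with fresh female Sprague Dawley rat liver mitochondria energized by succinate plus rotenone.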

SMILES | mPTP Rat brain pIC50 (mPTP [1]) | mPTP Rat liver pIC50 (mPTP [2])
CC(NC(=O)c1nn(C)c(=O)[nH]1)C1(Cc2ccccc2)CCC1 (single isomer, unassigned) [Example 24A, N-(1-(1-benzylcyclobutyl)ethyl)-1-methyl-5-oxo-4,5-dihydro-1H-1,2,4-triazole-3-carboxamide] | 7.83 | 6.75
CC(NC(=O)c1nn(C)c(=O)[nH]1)C1(Cc2ccccc2)CCC1 (single isomer, unassigned) [Example 24B, N-(1-(1-benzylcyclobutyl)ethyl)-1-methyl-5-oxo-4,5-dihydro-1H-1,2,4-triazole-3-carboxamide] | 5.49 | <4.52
CC(NC(=O)c1nn(C)c(=O)[nH]1)C(C)(C)Cc1ccccc1 (single isomer, unassigned) [Example 39B, N-(3,3-dimethyl-4-phenylbutan-2-yl)-1-methyl-5-oxo-4,5-dihydro-1H-1,2,4-triazole-3-carboxamide] | 7.62 | 6.56
CC(C)[C@H](CNC(=O)c1nn(C)c(=O)[nH]1)Cc1ccccc1 (single isomer, unassigned) [Example 46B] | 7.68 | 6.97
CC[C@@H](CNC(=O)c1nn(C)c(=O)[nH]1)Cc1ccccc1 (single isomer, unassigned) [Example 54a] | 5.68 | 5.04
CC[C@H](CNC(=O)c1nn(C)c(=O)[nH]1)Cc1ccccc1 (single isomer, unassigned) [Example 54b] | 7.94 | 6.82
CC[C@@H](Cc1ccc(F)cc1F)C(C)NC(=O)c1nn(C)c(=O)[nH]1 (single isomer, unassigned) [Example 223] | 7.60 | 6.90
CC[C@@H](Cc1ccc(F)cc1F)C(C)NC(=O)c1nn(C)c(=O)[nH]1 (single isomer, unassigned) [Example 224] | 5.04 | 4.52
CC(c1ccc(F)cc1F)[C@@H](CNC(=O)c1nccc(=O)[nH]1)C1CC1 (single isomer, unassigned) [Example 225] | 6.66 | 5.47
CC(c1ccc(F)cc1F)[C@@H](CNC(=O)c1nccc(=O)[nH]1)C1CC1 (single isomer, unassigned) [Example 226] | 4.82 | 4.52
Cn1nc(C(=O)NCC(C)(Cc2c(F)cc(F)cc2F)C2CC2)[nH]c1=O (single isomer, unassigned) [Example 227, N-[2-cyclopropyl-2-methyl-3-(2,4,6-trifluorophenyl)propyl]-1-methyl-5-oxo-4H-1,2,4-triazole-3-carboxamide] | 7.76 | 6.21
Cn1nc(C(=O)NCC(C)(Cc2c(F)cc(F)cc2F)C2CC2)[nH]c1=O (single isomer, unassigned) [Example 228, N-[2-cyclopropyl-2-methyl-3-(2,4,6-trifluorophenyl)propyl]-1-methyl-5-oxo-4H-1,2,4-triazole-3-carboxamide] | 7.12 | 6.16
Cn1nc(C(=O)NCC2(Cc3ccc(F)cc3F)CCCO2)[nH]c1=O (single isomer, unassigned) [Example 229] | 6.83 | 6.32
Cn1nc(C(=O)NCC2(Cc3ccc(F)cc3F)CCCO2)[nH]c1=O (single isomer, unassigned) [Example 230] | 6.40 | 6.18
Cn1nc(C(=O)NCC2(Cc3ccc(F)cc3F)CC23CC3)[nH]c1=O (single isomer, unassigned) [Example 231, N-((1-(2,4-difluorobenzyl)spiro[2.2]pentan-1-yl)methyl)-1-methyl-5-oxo-4,5-dihydro-1H-1,2,4-triazole-3-carboxamide] | 7.37 | 6.61
Cn1nc(C(=O)NCC2(Cc3ccc(F)cc3F)CC23CC3)[nH]c1=O (single isomer, unassigned) [Example 232, N-((1-(2,4-difluorobenzyl)spiro[2.2]pentan-1-yl)methyl)-1-methyl-5-oxo-4,5-dihydro-1H-1,2,4-triazole-3-carboxamide] | 7.56 | 6.65
O=C(NCC1(Cc2ccc(F)cc2F)CC12CC2)c1noc(=O)[nH]1 (single isomer, unassigned) [Example 233] | 7.10 | 5.77

SMILES | mPTP Rat brain pIC50 (mPTP [1]) | mPTP Rat liver pIC50 (mPTP [2])
O=C(NCC1(Cc2ccc(F)cc2F)CC12CC2)c1noc(=O)[nH]1 (single isomer, unassigned) [Example 234] | 6.30 | 5.24
O=C(NCC1(Cc2ccc(F)cc2F)CC12CC2)c1nccc(=O)[nH]1 (single isomer, unassigned) [Example 236] | 7.18 | 6.11
CC(c1ccc(F)cc1F)[C@@H](CNC(=O)c1nn(C)c(=O)[nH]1)C1CC1 (single isomer, unassigned) [Example 237] | 7.46 | 6.56
Cn1nc(C(=O)NCC(C)(Cc2ccc(F)cc2F)C2CC2)[nH]c1=O (single isomer, unassigned) [Example 240, N-(2-cyclopropyl-3-(2,4-difluorophenyl)-2-methylpropyl)-1-methyl-5-oxo-4,5-dihydro-1H-1,2,4-triazole-3-carboxamide] | 7.61 | 6.91
O=C(NCC1(Cc2ccc(F)cc2F)CC(F)C1)c1nccc(=O)[nH]1 (single isomer, unassigned) [Example 248] | 7.05 | 6.16
CC(CNC(=O)c1nccc(=O)[nH]1)(Cc1ccc(F)cc1)C1CC1 (single isomer, unassigned) [Example 251] | 7.06 | 6.21
O=C(NCC1(Cc2ccc(F)cc2F)CCC1)c1cncc(=O)[nH]1 [Example 16, N-((1-(2,4-difluorobenzyl)cyclobutyl)methyl)-6-oxo-1,6-dihydropyrazine-2-carboxamide] | 7.35 | –
CC[C@H](CNC(=O)c1noc(=O)[nH]1)Cc1ccc(F)cc1F [Example 209] | – | 5.96
Cn1nc(C(=O)NCC(C)(Cc2ccc(F)cc2F)C2CC2)[nH]c1=O (stereo not drawn) [Example 210, N-(2-cyclopropyl-3-(2,4-difluorophenyl)-2-methylpropyl)-1-methyl-5-oxo-4,5-dihydro-1H-1,2,4-triazole-3-carboxamide] | – | 6.82
O=C(NCC1(Cc2ccc(F)cc2F)CCC1)c1n[nH]c(=O)o1 [Example 211] | – | 6.05
Cn1nc(C(=O)NC[C@H](Cc2c(F)cccc2F)C2CC2)[nH]c1=O [Example 212] | – | 6.18
O=C(NCC1(Cc2ccc(F)cc2F)CCC1)c1cnc[nH]c1=O [Example 213, N-((1-(2,4-difluorobenzyl)cyclobutyl)methyl)-6-oxo-1,6-dihydropyrimidine-5-carboxamide] | – | <4.57
O=C(NCC(Cc1ccc(F)cc1Cl)C1CC1)c1nccc(=O)[nH]1 (stereo not drawn) [Example 214] | – | <4.52
O=C(NCC1(Cc2ccc(F)cc2F)CC(F)C1)c1nccc(=O)[nH]1 (stereo not drawn) [Example 215] | – | 6.34
Cn1nc(C(=O)NCC(Cc2c(F)cc(F)cc2Cl)C2CC2)[nH]c1=O (stereo not drawn) [Example 220] | – | 5.56
Cn1nc(C(=O)NCC(Cc2ccc(Cl)cc2F)C2CC2)[nH]c1=O (stereo not drawn) [Example 222] | – | 6.11
Cn1nc(C(=O)NCC2Cc3ccccc3O2)[nH]c1=O (stereo not drawn) [Reference Example 114, N-((2,3-dihydrobenzofuran-2-yl)methyl)-1-methyl-5-oxo-4,5-dihydro-1H-1,2,4-triazole-3-carboxamide] | – | <4.57
